Source: ChEMBL document CHEMBL1147493, “Small molecule biaryl FSH receptor agonists. Part 2: Lead optimization via parallel synthesis” (Bioorg Med Chem Lett, 2004)
Several values for one entry are separate records, joined by “and”; a condition that tells them apart may be missing. Equal entries are not always repeated.

Experiments:
Format in all cases: functional
[1] = target: T1, Follicle-stimulating hormone receptor (Homo sapiens, UniProt P23945); test: Agonistic activity against human follicle stimulating hormone receptor in CHO-hFSHR-luciferase assay.
T1 sequence (P23945 whole entry): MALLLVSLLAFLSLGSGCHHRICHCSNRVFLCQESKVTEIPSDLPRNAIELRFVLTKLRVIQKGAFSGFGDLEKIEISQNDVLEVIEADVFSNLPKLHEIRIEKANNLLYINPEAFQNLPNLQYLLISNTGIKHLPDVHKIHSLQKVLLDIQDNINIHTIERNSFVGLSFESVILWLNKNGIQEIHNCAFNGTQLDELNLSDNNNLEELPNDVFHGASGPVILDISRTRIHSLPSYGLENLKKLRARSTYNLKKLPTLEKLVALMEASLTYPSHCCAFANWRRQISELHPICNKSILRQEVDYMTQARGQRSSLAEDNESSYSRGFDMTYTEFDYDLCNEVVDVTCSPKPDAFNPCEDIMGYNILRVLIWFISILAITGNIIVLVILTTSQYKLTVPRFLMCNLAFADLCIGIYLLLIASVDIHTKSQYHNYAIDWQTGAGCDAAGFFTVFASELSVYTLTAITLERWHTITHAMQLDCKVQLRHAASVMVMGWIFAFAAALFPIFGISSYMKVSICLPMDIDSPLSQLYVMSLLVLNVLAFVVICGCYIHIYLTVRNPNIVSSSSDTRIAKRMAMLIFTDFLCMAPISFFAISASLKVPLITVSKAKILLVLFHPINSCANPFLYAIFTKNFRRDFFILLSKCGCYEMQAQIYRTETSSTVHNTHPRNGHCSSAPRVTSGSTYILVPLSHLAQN

[2] = target: T1, Follicle-stimulating hormone receptor; test: Agonistic activity in CHO-hFSHR cell-based cAMP accumulation assay
[3] = target: T2, Follicle-stimulating hormone receptor (Homo sapiens) (UniProt P23945); test: Agonistic efficacy in CHO-hFSHR cell-based cAMP accumulation assay relative to FSH(=100%)
T2 sequence (whole entry): T1 sequence (P23945 whole entry)

[4] = target: T1, Follicle-stimulating hormone receptor; test: Agonistic activity in CHO-hFollicle stimulating hormone receptor cell-based cAMP accumulation assay

Row | SMILES | EC50 [1] | EC50 [2] | Efficacy [3] | EC50 [4]
1 | CCCCCCN1CC(=O)N(C)[C@H](Cc2ccc(-c3cc(OC)c(OC)c(OC)c3)cc2)C1=O | > 50000 nM |  |  | 
2 | CCCCCCNC(=O)CN1CC(=O)N(CC)[C@@H](Cc2ccc(-c3cc(OC)c(OC)c(OC)c3)cc2)C1=O | > 20000 nM |  |  | 
3 | CCCCCCCCN1CC(=O)N(C)[C@@H](Cc2ccc(-c3cc(OC)cc(OC)c3)cc2)C1=O | 5000 nM |  |  | 
4 | CCCCCCCCN1CC(=O)N(C)[C@@H](Cc2ccc(-c3cc(C)c(OC)c(C)c3)cc2)C1=O | 1200 nM |  |  | 
5 | CCCCCCNC(=O)CN1CC(=O)N[C@@H](Cc2ccc(-c3cc(OC)c(OC)c(OC)c3)cc2)C1=O | > 20000 nM |  |  | 
6 | CCCCCCNC(=O)CN1CC(=O)N(CCC)[C@@H](Cc2ccc(-c3cc(OC)c(OC)c(OC)c3)cc2)C1=O | > 20000 nM |  |  | 
7 | CCCCCCCCN1C(=O)[C@@H](Cc2ccc(-c3cc(OC)c(OC)c(OC)c3)cc2)N(C)C(=O)[C@H]1C | 1600 nM |  |  | 
8 | CCCCCCCCCN1CC(=O)N(C)[C@@H](Cc2ccc(-c3cc(OC)c(OC)c(OC)c3)cc2)C1=O | 900 nM |  |  | 
9 | CCCCCCN1CC(=O)N(C)[C@@H](Cc2ccc(-c3cc(OC)c(OC)c(OC)c3)cc2)C1=O | 3000 nM |  |  | 
10 | CCCCCCCN1CC(=O)N(C)[C@@H](Cc2ccc(-c3cc(OC)c(OC)c(OC)c3)cc2)C1=O | 2300 nM |  |  | 
11 | CCCCCN1CC(=O)N(C)[C@@H](Cc2ccc(-c3cc(OC)c(OC)c(OC)c3)cc2)C1=O | 9000 nM |  |  | 
12 | CCCCCCCCN1CC(=O)N(C)[C@@H](Cc2ccc(-c3ccc(OC)c(OC)c3)cc2)C1=O | 3300 nM |  |  | 

Now those with a lower EC50 [1], led by results:

Row | EC50 [1] | EC50 [2] | Efficacy [3] | EC50 [4] | SMILES
13 | 68 nM |  |  |  | CCCCCCCCN1C(=O)[C@@H](Cc2ccc(-c3cc(OC)c(OC)c(OC)c3)cc2)N(C)C(=O)[C@@H]1C
14 | 2.7 nM | 31 nM | 49% |  | CCCCCCCCN1C(=O)[C@H](Cc2ccc(-c3cccc(CN(CCCC)C(=O)OC)c3)cc2)N(C)C(=O)[C@@H]1C
15 | 400 nM |  |  |  | CCCCCCCCN1CC(=O)N(C)[C@@H](Cc2ccc(-c3cc(OC)c(OC)c(OC)c3)cc2)C1=O
16 | 1.8 nM |  |  |  | CCCCCCCCN1C(=O)[C@H](Cc2ccc(-c3cccc(CN(COC)C(=O)OC)c3)cc2)N(C)C(=O)[C@@H]1C
17 | 9.7 nM |  |  |  | CCCCCCCCN1C(=O)[C@H](Cc2ccc(-c3cccc(CN(COC)C(C)=O)c3)cc2)N(C)C(=O)[C@@H]1C
18 | 14 nM | 35 nM | 57% |  | CCCCCCCCN1C(=O)[C@H](Cc2ccc(-c3cccc(CN(CCCC)C(C)=O)c3)cc2)N(C)C(=O)[C@@H]1C
19 | 1.2 nM | 7.9 nM | 72% |  | CCCCCCCCN1C(=O)[C@H](Cc2ccc(-c3cccc(CN(CCCC)C(=O)NC)c3)cc2)N(C)C(=O)[C@@H]1C
20 | 3.6 nM |  |  |  | CCCCCCCCN1C(=O)[C@H](Cc2ccc(-c3cccc(CN(COC)C(=O)NC)c3)cc2)N(C)C(=O)[C@@H]1C
21 | 120 nM |  |  |  | CCCCCCCCN1C(=O)[C@H](Cc2ccc(-c3cc(OC)c(OC)c(OC)c3)cc2)N(C)C(=O)[C@H]1C
22 | 150 nM |  |  |  | CCCCCCN1C(=O)[C@H](Cc2ccc(-c3cccc(CN(CCCC)C(C)=O)c3)cc2)N(C)C(=O)[C@@H]1C
23 | 25 nM |  | 54% | 32 nM | CCCCCCCN1C(=O)[C@H](Cc2ccc(-c3cc(OC)c(OC)c(OC)c3)cc2)N(C)C(=O)[C@@H]1C
24 | 1.7 nM |  |  |  | CCCCCNC(=O)CN1CC(=O)N(C)[C@@H](Cc2ccc(-c3cccc(CN(CCCC)C(=O)NC)c3)cc2)C1=O
25 | 8.9 nM | 48 nM and 59 nM |  |  | CCCCCCN1C(=O)[C@H](Cc2ccc(-c3cccc(CN(CCCC)C(=O)OC)c3)cc2)N(C)C(=O)[C@@H]1C
26 | 13 nM | 32 nM | 47% |  | CCCCCCCCN1C(=O)[C@H](Cc2ccc(-c3cc(OC)c(OC)c(OC)c3)cc2)N(C)C(=O)[C@@H]1C
27 | 3 nM |  |  |  | CCCCCCNC(=O)CN1CC(=O)N(C)[C@@H](Cc2ccc(-c3cc(OC)c(OC)c(OC)c3)cc2)C1=O
28 | 7.2 nM | 9.5 nM | 85% |  | CCCCCCN1C(=O)[C@H](Cc2ccc(-c3cccc(CN(CCCC)C(=O)NC)c3)cc2)N(C)C(=O)[C@@H]1C
29 | 100 nM |  |  |  | CCCCCCN1C(=O)[C@H](Cc2ccc(-c3cc(OC)c(OC)c(OC)c3)cc2)N(C)C(=O)[C@@H]1C
